In ChEMBL document CHEMBL5244211, “Current anti-diabetic agents and their molecular targets: A review” (Eur J Med Chem, 2018):

Tests used:
[1] = molecular target: T1, Fructose-1,6-bisphosphatase 1 (Homo sapiens, UniProt P09467); assay: Inhibition of FBPase (unknown origin)
T1 sequence (P09467 whole entry): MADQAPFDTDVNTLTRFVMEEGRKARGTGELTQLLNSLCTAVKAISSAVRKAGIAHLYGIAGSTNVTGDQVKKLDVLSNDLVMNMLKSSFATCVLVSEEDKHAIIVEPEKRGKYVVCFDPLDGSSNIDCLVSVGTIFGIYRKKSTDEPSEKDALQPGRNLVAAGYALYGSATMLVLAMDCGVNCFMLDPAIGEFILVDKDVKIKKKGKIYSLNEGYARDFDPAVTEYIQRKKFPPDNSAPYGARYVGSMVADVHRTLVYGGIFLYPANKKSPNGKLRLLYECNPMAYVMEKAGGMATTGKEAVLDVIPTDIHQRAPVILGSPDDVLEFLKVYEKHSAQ

[2] = Inhibition of bovine kidney ALR1 in presence of NADPH by UV spectrophotometric analysis; type: tissue-based, Bos taurus
Homo sapiens [3] = species: Homo sapiens; assay: Selectivity ratio of IC50 for inhibition of PTP1B (unknown origin) to IC50 for inhibition of TC-PTP (unknown origin)
[4] = molecular target: T2, Tyrosine-protein phosphatase non-receptor type 2 (Homo sapiens, UniProt P17706); assay: Inhibition of TC-PTP (unknown origin) using pNPP as substrate incubated for 5 mins by absorbance based analysis
T2 sequence (P17706 whole entry): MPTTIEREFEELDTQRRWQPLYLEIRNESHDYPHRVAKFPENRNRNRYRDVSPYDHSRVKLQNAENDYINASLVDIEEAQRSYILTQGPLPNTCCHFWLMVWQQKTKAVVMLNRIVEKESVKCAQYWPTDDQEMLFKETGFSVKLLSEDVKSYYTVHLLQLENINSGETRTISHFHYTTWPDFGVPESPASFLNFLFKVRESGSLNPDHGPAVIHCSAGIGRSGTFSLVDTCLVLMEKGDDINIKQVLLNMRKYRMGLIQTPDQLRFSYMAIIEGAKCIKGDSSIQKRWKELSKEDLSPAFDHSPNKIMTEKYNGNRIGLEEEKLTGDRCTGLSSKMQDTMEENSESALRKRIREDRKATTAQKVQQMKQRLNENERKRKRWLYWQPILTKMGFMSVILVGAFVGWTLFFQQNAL

Dipeptidyl peptidase 4 = Dipeptidyl peptidase 4 (Homo sapiens, UniProt P27487); assay: Inhibition of DPP4 (unknown origin) using Gly-Pro-AMC as substrate incubated for 20 mins by spectroscopic analysis
Chain of Dipeptidyl peptidase 4 (P27487 whole entry): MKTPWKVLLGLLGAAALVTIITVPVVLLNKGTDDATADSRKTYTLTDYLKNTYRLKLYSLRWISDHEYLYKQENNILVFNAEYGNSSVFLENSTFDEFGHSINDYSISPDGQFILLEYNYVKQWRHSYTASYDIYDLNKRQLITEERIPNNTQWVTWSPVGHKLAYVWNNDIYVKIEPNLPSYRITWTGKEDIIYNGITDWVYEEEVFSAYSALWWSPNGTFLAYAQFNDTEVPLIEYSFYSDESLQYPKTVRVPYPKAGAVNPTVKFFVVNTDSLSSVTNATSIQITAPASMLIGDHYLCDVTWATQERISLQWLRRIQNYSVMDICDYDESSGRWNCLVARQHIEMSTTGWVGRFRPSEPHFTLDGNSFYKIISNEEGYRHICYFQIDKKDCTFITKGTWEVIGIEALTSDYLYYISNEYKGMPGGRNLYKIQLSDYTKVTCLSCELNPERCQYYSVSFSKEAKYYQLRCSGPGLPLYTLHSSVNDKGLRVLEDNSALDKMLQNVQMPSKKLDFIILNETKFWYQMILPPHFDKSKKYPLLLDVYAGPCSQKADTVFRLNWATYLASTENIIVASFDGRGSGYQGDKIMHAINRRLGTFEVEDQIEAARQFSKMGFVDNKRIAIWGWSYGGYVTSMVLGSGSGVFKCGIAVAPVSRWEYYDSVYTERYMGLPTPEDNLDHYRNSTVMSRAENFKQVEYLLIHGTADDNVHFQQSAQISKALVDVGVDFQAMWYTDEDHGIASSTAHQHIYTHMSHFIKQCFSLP

[5] = Inhibition of Calf ALR2 in presence of NADPH by UV spectrophotometric analysis; set-up: species or system Bos taurus
[6] = Inhibition of calf lens ALR2 using glyceraldehyde as substrate incubated for 5 mins in presence of NADPH by UV-spectrophotometric analysis; type: tissue-based, Bos taurus
[7] = molecular target: Free fatty acid receptor 1 (Homo sapiens, UniProt O14842); assay: Agonist activity at human GPR40 expressed in HEK293 cells incubated for 18 to 24 hrs by HTRF assay; type: cell-based
Chain of Free fatty acid receptor 1 (O14842 whole entry): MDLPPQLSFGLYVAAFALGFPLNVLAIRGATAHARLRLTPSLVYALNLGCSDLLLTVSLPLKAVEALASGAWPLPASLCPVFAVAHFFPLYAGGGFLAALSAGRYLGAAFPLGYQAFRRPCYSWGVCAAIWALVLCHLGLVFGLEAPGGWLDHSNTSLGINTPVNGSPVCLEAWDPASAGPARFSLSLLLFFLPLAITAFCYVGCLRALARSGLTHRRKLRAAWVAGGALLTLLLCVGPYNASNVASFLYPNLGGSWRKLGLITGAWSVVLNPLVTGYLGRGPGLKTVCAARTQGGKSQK

[8] = molecular target: T3, Tyrosine-protein phosphatase non-receptor type 1 (Homo sapiens, UniProt P18031); assay: Inhibition of PTP1B (unknown origin)
T3 sequence (P18031 whole entry): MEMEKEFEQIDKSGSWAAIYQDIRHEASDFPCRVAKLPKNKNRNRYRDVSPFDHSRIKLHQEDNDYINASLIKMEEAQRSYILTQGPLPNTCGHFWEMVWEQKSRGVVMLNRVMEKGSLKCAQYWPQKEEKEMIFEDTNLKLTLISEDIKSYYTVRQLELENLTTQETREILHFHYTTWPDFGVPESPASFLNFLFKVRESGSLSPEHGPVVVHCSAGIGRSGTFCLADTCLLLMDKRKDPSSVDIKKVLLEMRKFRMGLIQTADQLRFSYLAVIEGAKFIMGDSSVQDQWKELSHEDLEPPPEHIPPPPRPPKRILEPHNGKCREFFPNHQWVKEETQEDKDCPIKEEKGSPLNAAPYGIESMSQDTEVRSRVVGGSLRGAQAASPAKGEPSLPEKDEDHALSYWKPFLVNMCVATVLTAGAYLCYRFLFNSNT

[9] = molecular target: T2, Tyrosine-protein phosphatase non-receptor type 2; assay: Inhibition of TC-PTP (unknown origin)
Homo sapiens [10] = species: Homo sapiens; assay: Selectivity ratio of IC50 for inhibition of TC-PTP (unknown origin) to IC50 for inhibition of PTP1B (unknown origin)
[11] = molecular target: T4, Fructose-1,6-bisphosphatase 1 (Rattus norvegicus) (UniProt P19112); assay: Inhibition of FBPase in rat Primary hepatocyte assessed as reduction in glucose production at 160 uM; type: cell-based
T4 sequence (whole entry): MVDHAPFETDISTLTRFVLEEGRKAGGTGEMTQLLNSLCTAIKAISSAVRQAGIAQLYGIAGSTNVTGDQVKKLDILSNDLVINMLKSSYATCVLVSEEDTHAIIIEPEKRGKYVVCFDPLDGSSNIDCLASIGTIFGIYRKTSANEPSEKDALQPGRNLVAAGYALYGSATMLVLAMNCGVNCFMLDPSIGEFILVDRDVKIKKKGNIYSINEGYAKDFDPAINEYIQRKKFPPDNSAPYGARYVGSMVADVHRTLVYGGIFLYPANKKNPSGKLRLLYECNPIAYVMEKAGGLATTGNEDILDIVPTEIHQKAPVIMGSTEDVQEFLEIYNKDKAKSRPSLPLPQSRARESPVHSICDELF

[12] = molecular target: T5, Fructose-1,6-bisphosphatase 1 (Rattus norvegicus, UniProt P19112); assay: Inhibition of FBPase in rat Primary hepatocyte assessed as reduction in glucose production; type: cell-based
T5 sequence (P19112 whole entry): T4 sequence (whole entry)

Glucagon receptor = Glucagon receptor (Rattus norvegicus, UniProt P30082); assay: Displacement of [125I]-glucagon from GCGR in Sprague-Dawley rat liver assessed as decrease in glucagon-stimulated CAMP production incubated for 45 mins by scintillation counter analysis; type: tissue-based
Chain of Glucagon receptor (P30082 whole entry): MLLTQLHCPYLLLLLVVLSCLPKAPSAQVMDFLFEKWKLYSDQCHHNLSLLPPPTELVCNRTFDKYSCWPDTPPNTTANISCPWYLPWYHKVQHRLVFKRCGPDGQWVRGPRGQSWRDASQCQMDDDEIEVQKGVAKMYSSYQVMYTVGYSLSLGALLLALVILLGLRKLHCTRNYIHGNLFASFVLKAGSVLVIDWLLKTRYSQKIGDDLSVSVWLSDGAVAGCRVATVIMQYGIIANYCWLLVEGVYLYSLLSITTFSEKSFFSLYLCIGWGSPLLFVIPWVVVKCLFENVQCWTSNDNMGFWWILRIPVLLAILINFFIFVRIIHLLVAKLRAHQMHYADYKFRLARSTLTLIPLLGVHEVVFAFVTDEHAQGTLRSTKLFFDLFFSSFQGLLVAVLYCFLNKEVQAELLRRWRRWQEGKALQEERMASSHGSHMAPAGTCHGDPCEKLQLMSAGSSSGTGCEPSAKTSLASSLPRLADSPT

Compound `Cc1ccc(-c2nnc(-c3cccc(NC(=O)CCCCCCO)c3)o2)cc1` has an IC50 [1] of 1320 nM.
Compound `CCCC(CCC)C(=O)O` [VALPROIC ACID] has an IC50 [2] of 57400 nM.
In the case of `O=C(c1cccc(CN2CCCN(Cc3cccc(C(=O)C(F)(F)P(=O)(O)O)c3)CCN(Cc3cccc(C(=O)C(F)(F)P(=O)(O)O)c3)CCCN(Cc3cccc(C(=O)C(F)(F)P(=O)(O)O)c3)CC2)c1)C(F)(F)P(=O)(O)O`, the Ratio IC50 (Homo sapiens [3]) is reported as 14 and the IC50 [4] is reported as 75 nM.
For `O=C(CNc1nc(Nc2ccc(S(=O)(=O)Nc3nccs3)cc2)nc(N2CCOCC2)n1)Nc1ccc(F)cc1`, the IC50 (Dipeptidyl peptidase 4) was 2.32 nM.
Compound `CCCCNCn1nc(-c2cc3ccccc3oc2=O)oc1=S` has an IC50 [2] of 3360 nM and an IC50 [5] of 310 nM.
With `O=C1NC(=O)[C@@]2(CCOc3ccc(F)cc32)N1` [SORBINIL] the IC50 [6] was 3.1 nM.
Compound `COc1cc(N2CCC(Oc3ccc(N4N=C(C(F)(F)F)[C@@H](C)C4CC(=O)O)cc3)[C@H](N)C2)c(Cl)cn1` (stereo partly specified) has an EC50 [7] of 71 nM.
Work on `COc1cc(/C=C2\SC(=S)N(Cc3ccc(C(=O)O)cc3)C2=O)ccc1OCc1ccccc1` yielded an IC50 [8] of 1100 nM, an IC50 [9] of 3500 nM and a Ratio IC50 (Homo sapiens [10]) of 2.
Compound `Cc1ccc(-c2nnc(-c3cccc(NC(=O)CCCCc4nnn[nH]4)c3)o2)cc1` has an inhibition [11] of 42% and an IC50 [12] of 167000 nM.
Work on `Cc1ccc(-c2nnc(-c3cccc(NC(=O)CCCCO)c3)o2)cc1` yielded an IC50 [1] of 5610 nM.
Work on `Cc1ccc(-c2nn(-c3ccccc3)cc2/C=C2\SC(=S)N(c3cccc(Br)c3)C2=O)cc1` yielded an IC50 [6] of 1220 nM.
`CCCc1c(C(C)C)cc(C(C)C)c([C@@H](C)O)c1-c1ccc(F)cc1` gave an IC50 (Glucagon receptor) of 110 nM.
For `CC1=C(CC(=O)O)c2cc(F)ccc2/C1=C\c1ccc([S+](C)[O-])cc1` (stereo unspecified), the IC50 [5] was 293 nM.
`Cc1ccc(N2C(=O)/C(=C/c3cn(-c4ccccc4)nc3-c3ccc([N+](=O)[O-])cc3)SC2=S)cc1` showed an IC50 [6] of 2340 nM.
For `Nc1cc(Cl)ccc1/C(=N/Nc1nc(-c2cc3ccccc3oc2=O)cs1)c1ccccc1`, the IC50 [2] was 459 nM and the IC50 [5] was 110 nM.
